# What was measured:
# [1] = Cytotoxicity against human WI38 cells assessed as reduction in cell viability measured after 48 hrs by SRB assay; type: toxicity, cell-based, WI-38
# [2] = Selectivity index, ratio of IC50 for CHO cells to IC50 for chloroquine-sensitive asexual erythrocyte stage form Plasmodium falciparum NF54; type: toxicity, cell-based; settings: hamster, read-out: Ratio IC50
# CHO [3] = assay: Selectivity index, ratio of IC50 for CHO cells to IC50 for human MCF7 cells; type: functional
# [4] = Selectivity index, ratio of IC50 for human WI38 cells to IC50 for chloroquine-sensitive asexual erythrocyte stage form Plasmodium falciparum NF54; type: toxicity, cell-based, WI-38; settings: read-out: Ratio IC50
# CHO [5] = assay: Selectivity index, ratio of IC50 for CHO cells to IC50 for human TK10 cells; type: functional
# WI-38 = assay: Selectivity index, ratio of IC50 for human WI38 cells to IC50 for human TK10 cells; type: functional
# [6] = Cytotoxicity against CHO cells assessed as reduction in cell viability measured after 48 hrs by MTT assay; type: toxicity, cell-based, Cricetulus griseus; settings: Chinese hamster
# [7] = Selectivity index, ratio of IC50 for human MCF7 cells to IC50 for chloroquine-resistant asexual erythrocyte stage form Plasmodium falciparum Dd2; type: functional
# Plasmodium falciparum [8] = assay: Antiplasmodial activity against chloroquine-sensitive asexual erythrocyte stage form Plasmodium falciparum NF54 measured after 48 hrs by pLDH assay; type: functional; settings: NF54, 48 h
# [9] = Selectivity index, ratio of IC50 for human UACC62 cells to IC50 for chloroquine-resistant asexual erythrocyte stage form Plasmodium falciparum Dd2; type: functional, UACC-62
# [10] = Growth inhibition of human MCF7 cells measured after 24 hrs by SRB assay; type: functional, cell-based; settings: MCF7, 24 h
# [11] = Selectivity index, ratio of IC50 for human TK10 cells to IC50 for chloroquine-resistant asexual erythrocyte stage form Plasmodium falciparum Dd2; type: functional, TK-10
# [12] = Growth inhibition of human TK10 cells measured after 24 hrs by SRB assay; type: functional, cell-based; settings: TK-10, 24 h
# UACC-62 = assay: Selectivity index, ratio of IC50 for human WI38 cells to IC50 for human UACC62 cells; type: functional
# [13] = Resistance index, ratio of IC50 for chloroquine-resistant asexual erythrocyte stage form Plasmodium falciparum Dd2 to IC50 for chloroquine-sensitive asexual erythrocyte stage form Plasmodium falciparum NF54; type: functional
# CHO [14] = assay: Selectivity index, ratio of IC50 for CHO cells to IC50 for human UACC62 cells; type: functional
# [15] = Growth inhibition of human UACC62 cells measured after 24 hrs by SRB assay; type: functional, cell-based; settings: UACC-62, 24 h
# Plasmodium falciparum [16] = assay: Antiplasmodial activity against chloroquine-resistant asexual erythrocyte stage form Plasmodium falciparum Dd2 measured after 48 hrs by pLDH assay; type: functional; settings: Dd2, 48 h
# MCF7 = assay: Selectivity index, ratio of IC50 for human WI38 cells to IC50 for human MCF7 cells; type: functional
# [17] = Thermal stability of the compound assessed as melting point by thermogravimetric analysis; type: physicochemical
# [18] = Thermal stability of the compound assessed as onset of decomposition temperature by thermogravimetric analysis; type: physicochemical
# [19] = Thermal stability of the compound assessed as transition temperature by differential scanning calorimetry; type: physicochemical
Structure (SMILES),IC50 at 48 h [1],selectivity ratio [2],Ratio IC50 (CHO [3]),selectivity ratio [4],IC50 at 48 h [6],Ratio IC50 [7],IC50 (Plasmodium falciparum [8]),Ratio IC50 [9],IC50 [10],IC50 [12],Ratio IC50 [13],IC50 [15],IC50 (Plasmodium falciparum [16]),Ratio IC50 (MCF7),Tm [17],further results
C[C@@H]1CC[C@H]2C(C)(COC(=O)c3ccc(F)cc3)O[C@@H]3O[C@]4(C)CC[C@@H]1[C@]32OO4 (stereo not given in full),> 100 µM,27000,>40,> 27000,> 100 µM,385,0.0037 µM,1846,2.5 µM,41.7 µM,1.2,12 µM,0.0044 µM,>40,171.9 °C,Ratio IC50 (CHO [5]): >2; Ratio IC50 (WI-38): >2; Ratio IC50 [11]: 6415; Ratio IC50 (UACC-62): >8; Ratio IC50 (CHO [14]): >8
CCCC(=O)OCC1(C)O[C@@H]2O[C@]3(C)CC[C@H]4[C@H](C)CC[C@@H]1[C@@]24OO3 (stereo not given in full),> 100 µM,> 5920,>2,> 5920,> 100 µM,7768,0.0169 µM,–,53.6 µM,> 100 µM,0.4,> 100 µM,0.0069 µM,>2,–,–
C[C@@H]1CC[C@H]2C(C)(COC(=O)c3cc4ccccc4o3)O[C@@H]3O[C@]4(C)CC[C@@H]1[C@]32OO4 (stereo not given in full),> 100 µM,> 6850,>6,> 6850,> 100 µM,2563,0.0146 µM,11085,18.2 µM,> 100 µM,0.5,78.7 µM,0.0071 µM,>6,172.1 °C,–
C[C@@H]1CC[C@H]2C(C)(CO)O[C@@H]3O[C@]4(C)CC[C@@H]1[C@]32OO4 (stereo not given in full),> 100 µM,> 24400,–,> 24400,> 100 µM,–,0.0041 µM,–,> 100 µM,> 100 µM,1.8,> 100 µM,0.0074 µM,–,160.9 °C,T [18]: 144 °C
Cc1ccsc1C(=O)OCC1(C)O[C@@H]2O[C@]3(C)CC[C@H]4[C@H](C)CC[C@@H]1[C@@]24OO3 (stereo not given in full),> 100 µM,> 13900,>15,> 13900,> 100 µM,958,0.0072 µM,1958,6.8 µM,> 100 µM,1,13.9 µM,0.0071 µM,>15,–,–
C[C@@H]1CC[C@H]2C(C)(C=O)O[C@@H]3O[C@]4(C)CC[C@@H]1[C@]32OO4 (stereo not given in full),> 100 µM,> 14500,–,> 14500,> 100 µM,1560,0.0069 µM,1900,6.4 µM,36.6 µM,0.6,7.8 µM,0.0041 µM,6,174.9 °C,Ratio IC50 (WI-38): >3; Ratio IC50 [11]: 8927; Ratio IC50 (UACC-62): >13
CC(=O)Oc1ccccc1C(=O)OCC1(C)O[C@@H]2O[C@]3(C)CC[C@H]4[C@H](C)CC[C@@H]1[C@@]24OO3 (stereo not given in full),> 100 µM,> 37000,>10,> 37000,> 100 µM,2442,0.0027 µM,4419,10.5 µM,> 100 µM,1.6,19 µM,0.0043 µM,>10,175.2 °C,–
C[C@@H]1CC[C@H]2C(C)(COC(=O)c3ccc([N+](=O)[O-])cc3)O[C@@H]3O[C@]4(C)CC[C@@H]1[C@]32OO4 (stereo not given in full),> 100 µM,> 14900,>2,> 14900,> 100 µM,–,0.0067 µM,17077,44.4 µM,56 µM,0.4,> 100 µM,0.0026 µM,>2,172.4 °C,Ratio IC50 (CHO [5]): >2; Ratio IC50 (WI-38): >2; T [18]: 220 °C; Ratio IC50 [11]: 21539; T [19]: 110 °C
CCCCCC(=O)OCC1(C)O[C@@H]2O[C@]3(C)CC[C@H]4[C@H](C)CC[C@@H]1[C@@]24OO3 (stereo not given in full),> 100 µM,> 1660,>2,> 1660,> 100 µM,1100,0.0601 µM,–,47.5 µM,> 100 µM,0.7,> 100 µM,0.0432 µM,>2,–,–
C[C@@H]1CC[C@H]2C(C)(COC(=O)c3ccc(-c4ccccc4)cc3)O[C@@H]3O[C@]4(C)CC[C@@H]1[C@]32OO4 (stereo not given in full),> 100 µM,> 13700,>40,> 13700,> 100 µM,385,0.0073 µM,1846,2.51 µM,41.7 µM,0.9,12 µM,0.0065 µM,>40,173.8 °C,Ratio IC50 (CHO [5]): >2; Ratio IC50 (WI-38): >2; Ratio IC50 [11]: 6415; Ratio IC50 (UACC-62): >8; Ratio IC50 (CHO [14]): >8
C[C@@H]1CC[C@H]2C(C)(COC(=O)CCc3ccccc3)O[C@@H]3O[C@]4(C)CC[C@@H]1[C@]32OO4 (stereo not given in full),> 100 µM,> 13500,>3,> 13500,> 100 µM,2974,0.0074 µM,6026,34.2 µM,> 100 µM,1.6,69.3 µM,0.0115 µM,>3,–,Ratio IC50 (UACC-62): >1.4; Ratio IC50 (CHO [14]): >1.4
C[C@@H]1CC[C@H]2C(C)(COC(=O)c3ccco3)O[C@@H]3O[C@]4(C)CC[C@@H]1[C@]32OO4 (stereo not given in full),> 100 µM,> 10900,–,> 10900,> 100 µM,–,0.0092 µM,–,> 100 µM,> 100 µM,0.4,> 100 µM,0.0037 µM,–,177.3 °C,–
C[C@@H]1CC[C@H]2C(C)(COC(=O)c3cccs3)O[C@@H]3O[C@]4(C)CC[C@@H]1[C@]32OO4 (stereo not given in full),> 100 µM,> 20800,>2,> 20800,> 100 µM,7898,0.0048 µM,6661,46.6 µM,> 100 µM,1.2,39.3 µM,0.0059 µM,>2,170.8 °C,–
C=C1C(=O)O[C@@H]2C3O[C@]3(C)CC/C=C(\C)CC[C@@H]12 (stereo not given in full),–,–,–,–,–,–,–,–,5.8 µM,6.4 µM,–,15 µM,–,–,–,–
CO[C@H]1O[C@@H]2O[C@@]3(C)CC[C@H]4[C@H](C)CC[C@@H]([C@H]1C)[C@@]24OO3 [ARTEMETHER],–,> 26300,–,–,> 100 µM,–,0.0038 µM,–,–,–,0.6,–,0.0023 µM,–,186 °C,–
C[C@H]1[C@@H](O)O[C@@H]2O[C@@]3(C)CC[C@H]4[C@H](C)CC[C@@H]1[C@@]24OO3 [ARTENIMOL],–,> 45500,–,–,> 100 µM,–,0.0022 µM,–,–,–,0.6,–,0.0012 µM,–,160 °C,–
C[C@H]1[C@H](OC(=O)CCC(=O)O)O[C@@H]2O[C@@]3(C)CC[C@H]4[C@H](C)CC[C@@H]1[C@@]24OO3 [ARTESUNATE],> 100 µM,> 12500,–,> 12500,> 100 µM,–,0.008 µM,–,–,–,0.9,–,0.0075 µM,–,134.7 °C,–
CC[C@H]1CN2CCc3cc(OC)c(OC)cc3[C@@H]2C[C@@H]1C[C@H]1NCCc2cc(OC)c(OC)cc21 [EMETINE],0.05 µM,–,–,–,0.29 µM,–,–,–,–,–,–,–,–,–,–,–

# From ChEMBL document CHEMBL3865826, “Synthesis and biological evaluation of a series of non-hemiacetal ester derivatives of artemisinin” (Eur J Med Chem, 2016)
